Consider 25 compounds from patent US10668039B2, “Methods for treatment of adenoid cystic carcinoma” (THE CHILDREN'S MEDICAL CENTER CORPORATION, priority 2016, dated 2020).

The test system of one experiment is c-myb:GFP. Description: c-myb:GFP zebrafish blastomere embryo culture chemical screen. To be noted: approximately 30 μM, 2 days. Format: cell-based. The method, then: The inventors have developed an embryo culture system in which embryos bearing a c-myb:GFP transgenic reporter were dissociated during sphere stage at 4 hours post fertilization (hpf), and cultured in gelatin-coated 384 well plates with chemicals for 2 days until imaging for fluorescent reporter activity (FIG. 1). This fluorescent transgene is expressed in a similar pattern to the endogenous gene. […] This transgene responds to inducers of hematopoiesis, as myb is a marker of hematopoietic stem cells (HSCs).
The image analysis software (ImageJ and MatLab) was used to identify hits that downregulate c-myb:GFP zebrafish embryo cultures by a z-score less than […] and more than 70% downregulation. Hits were assessed by eye and scored for morphology. Toxic compounds that caused poor embryoid body (EB) formation were assessed a 4.
Zebrafish cell culture: Zebrafish embryo cultures were adapted from Xu (2013). Dissociated blastomere cells were grown in medium composed of 85% LDF medium, 5% heat inactivated FBS, and 10% zebrafish day 1 embryo extract. LDF medium contains 50% Leibowitz's L-15 (Invitrogen), 20% DMEM (Invitrogen), and 30% DMEM/F-12 (Invitrogen), supplemented with 0.018% sodium bicarbonate, 15 mM HEPES (Invitrogen), 1% L-Glutamine (Invitrogen), 10 nM sodium selenite (Sigma-Aldrich), 1% N2 (Invitrogen), 2% B27 (Invitrogen), 1% Penicillin-Streptomycin (Invitrogen), and 0.2% Primocin (InvivoGen).
Screening procedures: Two 384-well plates were coated with 0.1% gelatin for each chemical library plate. Males of the c-myb:GFP transgenic line were set up overnight with casper females and kept separated until morning when they were mixed for mating. Embryos were washed twice with E3 embryo water and treated with pronase to remove chorions. Dechorionated embryos were washed with E3 embryo water and collected into tubes containing media. Embryos were disassociated by shaking ˜10 times and were filtered through a 40 μm nylon mesh filter. Resulting single cells were diluted with medium and aliquoted 30 μl per well into the 384-well plates at approximately 2 embryo equivalents per well. Chemicals were dispensed immediately afterwards with an Agilent Bravo robot. Chemicals from the libraries were diluted 300 times with LDF medium and were aliquoted 10 μl per well for a final concentration of approximately 33 μM. […] Cells were cultured in a 28° C. incubator with 5% CO2. Two days later, cells were imaged by a Yokogawa Cell Voyager 7000 imager. Images were analyzed by ImageJ and MatLab and confirmed by eye. […]
Culture of dissociated blastomere cells: Stage-matched zebrafish blastomeres were dissociated at 4 hpf and grown in medium composed of 85% LDF medium, 5% FBS, and 10% embryo extract. LDF medium contains 50% Leibowitz's L-15 (Invitrogen), 20% DMEM (Invitrogen), and 30% DMEM/F-12 (Invitrogen), supplemented with 2% B27 (Gibco), 15 mM HEPES (Gibco), 1% L-glutamine (Gibco), 1% N2 (Gibco), 10 nM sodium selenite (Sigma), 100 ug/mL piperacillin (Sigma), 10 ug/mL ciprofloxacin (GenHunter), and 0.018% sodium bicarbonate (Gibco). Embryo extract was made by homogenizing 24 hpf wildtype AB embryos in HBSS (Gibco).

Experiment [1] relates to c-myb. In words: qPCR of sorted c-myb:GFP zebrafish embryo cells. As to conditions: sorted c-myb:GFP cells from 72 hpf embryos, 1 μM, 6 hours. It is filed as cell-based. The method, then:
RA dose response experiments were plated similarly in LDF medium with the appropriate RA concentration. Sorted c-myb:GFP+ cells were collected from 72 hpf transgenic embryos that were homogenized: embryos were finely chopped and dissociated using Liberase (Roche), cell suspensions were filtered, and 58,000 GFP+ live cells were collected using a FACS Aria cell sorter (BD Biosciences). Cells were cultured for 6 hours in LDF medium, and then collected for qPCR.
(§1) Quantitative PCR: Total RNA from cells was extracted using Qiagen RNeasy Mini Kit, and random primed cDNA was generated (Invitrogen, SuperScript III First-Strand Synthesis System). The SsoFast EvaGreen (Biorad) method was used to quantify cDNAs of interest, which are represented as the fold change in transcript level. The amount of cDNA starting material for each sample was normalized in relation to species-specific β-actin expression for zebrafish samples, and both gapdh and β-actin expression for human samples. The primer sequences used were zebrafish myb: forward, 5′-[…]-3′ (SEQ ID No:1), reverse, 5′-[…]-3′ (SEQ ID No:2); zebrafish β-actin: forward, 5′-[…]-3′ (SEQ ID No:3), reverse, 5′-[…]-3′ (SEQ ID No:4); human myb: forward, 5′-[…]-3′ (SEQ ID No:5), reverse, 5′-[…]-3′ (SEQ ID No:6); human gapdh: forward, 5′-[…]-3′ (SEQ ID No:7), reverse, 5′-[…]-3′ (SEQ ID No:8); human β-actin: forward, 5′-[…]-3′ (SEQ ID No:9), reverse, 5′-[…]-3′ (SEQ ID No:10).
Zebrafish quantitative PCR analysis: Stage-matched 72 hpf c-myb:GFP transgenic embryos were finely chopped and dissociated using Liberase (Roche). GFP+ cells were collected using a FACS Aria cell sorter (BD Biosciences). Sorted cells were resuspended in zebrafish blastomere media and plated with 1 μM retinoic acid agonists for 6 hours. Cells were then collected and RNA was isolated using the RNeasy Micro Plus Kit (Qiagen) as per the manufacturer's instructions. cDNA was synthesized using the SuperScript III Kit (Life Technologies). Quantitative PCR was performed in triplicate on a BioRad iQ5 real-time PCR machine using Ssofast EvaGreen Supermix (BioRad). Samples were normalized to β-actin gene. Zebrafish primers used (forward and reverse respectively): actin, 5′-[…]-3′ (SEQ ID No:3) and 5′-[…] -3′ (SEQ ID No:4); c-myb, 5′-[…]-3′ (SEQ ID No:1) and 5′-[…]-3′ (SEQ ID No:2); mpx, 5′-[…]-3′ (SEQ ID No:11) and 5′-[…]-3′ (SEQ ID No:12); GFP, 5′-[…]-3′ (SEQ ID No:13) and 5′-[…]-3′ (SEQ ID No:14).
Background: Quantitative PCR measures a nucleic acid by following its amplification.

The subject of experiment [2] is c-myb. Description: U937 time course qPCR of c-myb. It is filed as cell-based, human. To be noted: 1 μM; 6, 24 and 48 hours. On the procedure: Cell culture: U937 cells were grown in RPMI 1640 (Life Technologies), 10% heat inactivated FBS, and 1% Penicillin-Streptomycin (Invitrogen). CellTiter-Glo Luminescent Cell Viability Assay (Promega) was performed as per manufacturer's instructions. Cell viability was assessed at day 2.
as §1
U937 time course quantitative PCR analysis: U937 cells were plated with 1 μM retinoic acid agonists for the duration indicated. Cells were then collected and RNA was isolated using the RNeasy Plus Mini Kit (Qiagen) as per the manufacturer's instructions. Further processing was done as described in the section above. Samples were normalized to β-actin gene. Human primers used (forward and reverse respectively): actin, 5′-[…]-3′ (SEQ ID No:9) and 5′-[…]-3′ (SEQ ID No:10); c-myb, 5′-[…]-3′ (SEQ ID No:5) and 5′-[…]-3′ (SEQ ID No:6).

For another experiment, the system named is ACC. As to conditions: Phase II trials in ACC; cited from earlier work.
[3] abbreviates: Table 2, c-myb:GFP embryo cultures, average across two plates.
Setting [4] is: Table 2, c-myb:GFP embryo cultures.
Where [5] appears, read: Table 3, GFP signal in blastomere embryo culture screen.

Consider `COc1ccc2c(c1)c(CC(=O)O)c(C)n2Cc1ccc(F)cc1` [1-(4-Fluorobenzyl)-5-methoxy-2-methylindole-3-acetic acid], for which the Z-Score in the experiment with c-myb:GFP (setting [3]) is listed as −1.726.
For `Cc1nsc(NC(=O)N2CCCC(Cc3ccc(F)cc3)C2)n1` (stereo not drawn) [3-(4-fluorobenzyl)-N-(3-methyl-1,2,4-thiadiazol-5-yl)piperidine-1-carboxamide], the Z-Score in the experiment on c-myb:GFP (setting [3]) was −3.287.
`Cc1nn(C)cc1-c1ccnc(NC(CC(C)(C)C)c2cccnc2)n1` (stereo not drawn) [4-(1,3-dimethyl-1H-pyrazol-4-yl)-N-(3,3-dimethyl-1-pyridin-3-ylbutyl)pyrimidin-2-amine]: the Z-Score in the experiment with c-myb:GFP (setting [3]) was −2.29.
`COc1ccc(N2CCN(C(=O)Nc3nc(C)ns3)CC2(C)C)cc1` [4-(4-methoxyphenyl)-3,3-dimethyl-N-(3-methyl-1,2,4-thiadiazol-5-yl)piperazine-1-carboxamide] registered a Z-Score in the experiment on c-myb:GFP (setting [3]) of −2.357.
On the same count and under the same terms, with `Cc1nsc(NC(=O)N2CCC(Sc3ccccc3C)CC2)n1` [4-[(2-methylphenyl)thio]-N-(3-methyl-1,2,4-thiadiazol-5-yl)piperidine-1-carboxamide] the figure was −2.228.
Regarding `CC1=C(/C=C/C(C)=C\C=C\C(C)=C\C(=O)O)C(C)(C)CCC1` [9-cis retinoic acid], the “Fold Change” value in the experiment on c-myb:GFP (setting [4]) and in the experiment on c-myb:GFP (setting [5]) was −0.9153 each time. The Z-Score with c-myb:GFP (setting [3]) and in the experiment with c-myb:GFP (setting [5]) was −1.566 throughout. Besides, the “endogenous myb levels by qPCR” value in the experiment with c-myb [1] is listed as “significantly downregulate”. Besides, the “myb levels in U937 by qPCR” value in the experiment on c-myb [2] is given as “significantly downregulate”.
On to `C=C(C)[C@H]1CC=C(C(=O)O)CC1` [(−)-Perillic acid], for which, in the experiment with c-myb:GFP (setting [4]), the “Fold Change” value is −0.7327. In the experiment on c-myb:GFP (setting [3]), this compound gave a Z-Score of −1.848.
As for `CCCCOCCOc1nc(-c2ccc(C(=O)O)c(F)c2)sc1C` [AC 261066, 4-[4-(2-Butoxyethoxy-)-5-methyl-2-thiazolyl]-2-fluorobenzoic acid], the “Fold Change” value with c-myb:GFP (setting [4]) and in the experiment on c-myb:GFP (setting [5]) was −0.7734 throughout. For the same compound, the Z-Score in the experiment with c-myb:GFP (setting [3]) and in the experiment on c-myb:GFP (setting [5]) was −1.697 throughout.
In the case of `CC1(C)CCC(C)(C)c2cc(C(=O)Nc3ccc(C(=O)O)cc3)ccc21` [AM-580, 4-[(5,6,7,8-Tetrahydro-5,5,8,8-tetramethyl-2-naphthalenyl)carboxamido]benzoic acid], the “Fold Change” value in the experiment on c-myb:GFP (setting [4]) and with c-myb:GFP (setting [5]) was −0.9547 throughout. Besides, the Z-Score in the experiment on c-myb:GFP (setting [3]) and in the experiment on c-myb:GFP (setting [5]) was −1.631 each time.
For the compound `CC(C)C[C@H](NC(=O)[C@H](Cc1ccccc1)NC(=O)c1cnccn1)B(O)O` [Bortezomib], the “Objective Response Rate” value in the experiment on ACC was 0%.
The compound `O=c1c2ccccc2[nH]c(=S)n1CCN1CCC(=C(c2ccc(F)cc2)c2ccc(F)cc2)CC1` [Diacylglycerol Kinase Inhibitor II] returned a Z-Score with c-myb:GFP (setting [3]) of −1.493.
For the compound `CO[C@H]1C[C@@H]2CC[C@@H](C)[C@@](O)(O2)C(=O)C(=O)N2CCCC[C@H]2C(=O)O[C@H]([C@H](C)C[C@@H]2CC[C@@H](OCCO)[C@H](OC)C2)CC(=O)[C@H](C)/C=C(\C)[C@@H](O)[C@@H](OC)C(=O)[C@H](C)C[C@H](C)/C=C/C=C/C=C/1C` [Everolimus], in the experiment with ACC, the “Objective Response Rate” value is 0%.
The compound `O=C(c1ccc(OCCN2CCCCC2)cc1)c1c(-c2ccc(O)cc2)sc2cc(O)ccc12` [Evista] displayed a Z-Score with c-myb:GFP (setting [3]) of −3.318.
Same read-out and setting: with `CC1(C)O[C@@H]2C[C@H]3[C@@H]4C[C@H](F)C5=CC(=O)C=C[C@]5(C)[C@H]4[C@@H](O)C[C@]3(C)[C@]2(C(=O)CO)O1` [FluniSOLIDe] the figure was −3.085.
For the compound `COc1cc2ncnc(Nc3ccc(F)c(Cl)c3)c2cc1OCCCN1CCOCC1` [Gefitinib], the “Objective Response Rate” value in the experiment with ACC is listed as 0%.
As for `Cc1ccc(NC(=O)c2ccc(CN3CCN(C)CC3)cc2)cc1Nc1nccc(-c2cccnc2)n1` [Imatinib], the “Objective Response Rate” value with ACC is given as 0%.
On to `Cl.FC(F)(F)c1cc(CO[C@H]2CCCN[C@H]2c2ccccc2)cc(C(F)(F)F)c1` [L-733,060 hydrochloride], for which the “Fold Change” value with c-myb:GFP (setting [4]) is given as −0.752. Besides, the Z-Score with c-myb:GFP (setting [3]) was −1.715.
On to `CS(=O)(=O)CCNCc1ccc(-c2ccc3ncnc(Nc4ccc(OCc5cccc(F)c5)c(Cl)c4)c3c2)o1` [Lapatinib], for which the “Objective Response Rate” value with ACC is recorded as 0%.
Compound `Cc1c(C(C)Nc2ncnc3sccc23)cnn1C` (stereo not drawn) [N-[1-(1,5-dimethyl-1H-pyrazol-4-yl)ethyl]thieno[2,3-d]pyrimidin-4-amine] had a Z-Score with c-myb:GFP (setting [3]) of −2.83.
On the same count and under the same terms, with `O=C(Cc1cccc(O)c1)NCc1cc2cc(Cl)ccc2[nH]1` [N-[(5-chloro-1H-indol-2-yl)methyl]-2-(3-hydroxyphenyl)acetamide] the figure was −3.297; with `Nc1nc2ccc(OC(F)(F)F)cc2s1` [Riluzole], −6.521.
For the compound `CNC(=O)c1cc(Oc2ccc(NC(=O)Nc3ccc(Cl)c(C(F)(F)F)c3)cc2)ccn1` [Sorafenib], the “Objective Response Rate” value in the experiment on ACC is given as 11%.
`O=C(O[C@H]1[C@H](Oc2ccccc2COC(=O)C2(O)C=CCCC2=O)O[C@H](CO)[C@@H](O)[C@@H]1O)c1ccccc1` (stereo partly drawn) [TREMULACIN]: in the experiment with c-myb:GFP (setting [3]), the Z-Score is −3.9299.
Consider `C/C(=C\c1ccc(C(=O)O)cc1)c1ccc2c(c1)C(C)(C)CCC2(C)C` [TTNPB, 4-[(E)-2-(5,6,7,8-Tetrahydro-5,5,8,8-tetramethyl-2-naphthalenyl)-1-propenyl]benzoic acid], for which the Z-Score in the experiment on c-myb:GFP (setting [3]) is given as −1.6339; with c-myb:GFP (setting [5]), −1.634.
Consider `O=C(CCCCCCC(=O)Nc1ccccc1)NO` [Vorinostat], for which, in the experiment with ACC, the “Objective Response Rate” value is listed as 3%.
